{"source": "ChEMBL document CHEMBL1201862", "about": "“PubChem BioAssay data set” (2004)", "key": {"Mucolipin-3": {"target": "Mucolipin-3 (Homo sapiens, UniProt Q8TDD5)", "sequence (Q8TDD5 whole entry)": "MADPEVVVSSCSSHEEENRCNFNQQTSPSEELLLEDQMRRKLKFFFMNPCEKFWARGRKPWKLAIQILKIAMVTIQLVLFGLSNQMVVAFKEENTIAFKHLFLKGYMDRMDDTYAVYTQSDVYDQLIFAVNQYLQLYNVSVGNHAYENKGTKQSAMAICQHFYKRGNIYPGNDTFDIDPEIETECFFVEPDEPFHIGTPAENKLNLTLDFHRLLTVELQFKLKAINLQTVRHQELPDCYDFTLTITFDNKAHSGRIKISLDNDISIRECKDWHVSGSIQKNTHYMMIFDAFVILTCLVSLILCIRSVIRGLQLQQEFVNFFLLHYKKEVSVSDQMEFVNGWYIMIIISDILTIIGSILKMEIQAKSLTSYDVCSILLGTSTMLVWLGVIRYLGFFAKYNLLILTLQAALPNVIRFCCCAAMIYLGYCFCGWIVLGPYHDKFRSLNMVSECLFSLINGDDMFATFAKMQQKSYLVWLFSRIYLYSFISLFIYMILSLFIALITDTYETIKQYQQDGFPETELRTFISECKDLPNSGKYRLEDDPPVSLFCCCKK", "test": "Dose response cell-based high-throughput screening assay for agonists of the transient receptor potential channel ML3 (TRPML3). [Related pubchem assays: 1526, 1424, 1448 ]", "assay_type": "functional"}, "Ion channel NompC": {"target": "Ion channel NompC (Danio rerio, UniProt Q7T1G6)", "sequence (Q7T1G6 whole entry)": "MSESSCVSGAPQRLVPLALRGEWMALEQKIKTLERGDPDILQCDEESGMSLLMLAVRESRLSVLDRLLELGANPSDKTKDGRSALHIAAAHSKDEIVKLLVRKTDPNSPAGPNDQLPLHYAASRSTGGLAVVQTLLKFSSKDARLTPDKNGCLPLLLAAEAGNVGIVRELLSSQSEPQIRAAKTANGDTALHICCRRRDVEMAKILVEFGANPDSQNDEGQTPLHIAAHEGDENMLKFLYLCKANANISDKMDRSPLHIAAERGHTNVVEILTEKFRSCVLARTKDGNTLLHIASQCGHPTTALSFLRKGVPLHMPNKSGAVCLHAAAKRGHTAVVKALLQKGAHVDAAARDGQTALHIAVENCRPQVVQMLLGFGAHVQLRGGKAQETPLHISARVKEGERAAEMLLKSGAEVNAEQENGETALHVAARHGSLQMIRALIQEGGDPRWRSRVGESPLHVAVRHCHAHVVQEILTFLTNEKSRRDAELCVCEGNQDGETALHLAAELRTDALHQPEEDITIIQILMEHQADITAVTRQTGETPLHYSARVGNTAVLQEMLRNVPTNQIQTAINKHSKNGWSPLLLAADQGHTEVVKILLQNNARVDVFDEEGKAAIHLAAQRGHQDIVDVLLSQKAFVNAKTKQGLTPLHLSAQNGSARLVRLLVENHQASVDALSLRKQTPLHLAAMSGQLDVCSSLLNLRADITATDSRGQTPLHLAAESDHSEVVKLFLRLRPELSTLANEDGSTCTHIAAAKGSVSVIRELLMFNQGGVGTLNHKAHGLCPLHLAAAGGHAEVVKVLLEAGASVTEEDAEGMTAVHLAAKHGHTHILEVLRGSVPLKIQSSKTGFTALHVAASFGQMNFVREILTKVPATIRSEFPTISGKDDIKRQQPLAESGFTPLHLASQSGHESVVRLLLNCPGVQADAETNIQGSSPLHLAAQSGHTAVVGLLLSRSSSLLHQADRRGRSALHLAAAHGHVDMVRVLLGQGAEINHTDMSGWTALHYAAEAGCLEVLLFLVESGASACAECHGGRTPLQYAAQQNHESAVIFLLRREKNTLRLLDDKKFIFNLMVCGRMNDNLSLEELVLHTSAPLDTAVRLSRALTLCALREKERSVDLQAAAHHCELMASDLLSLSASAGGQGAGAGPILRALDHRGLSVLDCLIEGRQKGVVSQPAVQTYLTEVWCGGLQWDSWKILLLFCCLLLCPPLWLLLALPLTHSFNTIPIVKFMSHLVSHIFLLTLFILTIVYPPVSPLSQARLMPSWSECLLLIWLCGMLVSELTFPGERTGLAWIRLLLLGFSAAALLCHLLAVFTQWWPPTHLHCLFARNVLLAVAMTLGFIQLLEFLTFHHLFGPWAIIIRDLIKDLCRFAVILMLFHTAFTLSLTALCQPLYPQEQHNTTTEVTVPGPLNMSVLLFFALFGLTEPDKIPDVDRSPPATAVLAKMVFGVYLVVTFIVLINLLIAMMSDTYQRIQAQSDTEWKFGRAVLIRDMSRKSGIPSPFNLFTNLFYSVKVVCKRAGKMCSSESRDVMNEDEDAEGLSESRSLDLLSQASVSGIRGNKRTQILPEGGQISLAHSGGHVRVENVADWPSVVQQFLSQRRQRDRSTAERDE", "test": "Fluorescence counterscreen assay for TRPML3 agonists: dose response cell-based high-throughput screening assay to identify agonists of the transient receptor potential channel N1 (TRPN1). [Related pubchem assays: 1526, 1424, 1448 ]", "assay_type": "functional"}, "[1]": {"target": "T1, Heat shock 70 kDa protein 1A (Homo sapiens, UniProt P0DMV8)", "T1 sequence (P0DMV8 whole entry)": "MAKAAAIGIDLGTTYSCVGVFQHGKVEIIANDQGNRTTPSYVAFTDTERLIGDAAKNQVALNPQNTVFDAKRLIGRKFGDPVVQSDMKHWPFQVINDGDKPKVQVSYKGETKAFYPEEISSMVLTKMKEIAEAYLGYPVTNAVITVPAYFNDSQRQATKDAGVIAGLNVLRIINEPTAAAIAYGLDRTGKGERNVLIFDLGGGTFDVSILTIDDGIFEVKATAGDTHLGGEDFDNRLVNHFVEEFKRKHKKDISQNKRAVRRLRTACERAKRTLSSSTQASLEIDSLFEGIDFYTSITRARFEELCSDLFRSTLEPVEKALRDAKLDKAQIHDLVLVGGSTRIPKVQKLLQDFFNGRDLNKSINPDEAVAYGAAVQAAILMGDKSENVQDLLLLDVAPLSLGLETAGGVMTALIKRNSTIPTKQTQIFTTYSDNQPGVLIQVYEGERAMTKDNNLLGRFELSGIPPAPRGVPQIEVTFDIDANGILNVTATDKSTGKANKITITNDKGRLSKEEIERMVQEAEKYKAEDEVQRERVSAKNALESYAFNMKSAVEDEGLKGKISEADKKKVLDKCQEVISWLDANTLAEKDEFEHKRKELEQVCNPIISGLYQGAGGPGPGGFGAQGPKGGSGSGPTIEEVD", "test": "Hsp70 inhibitors, biochemical, TR-FRET (AID 786)"}, "[2]": {"target": "T1, Heat shock 70 kDa protein 1A", "test": "Hsp70 inhibitors, probe displacement, primary screen, biochemical, fluorescence polarization (AID 583)"}, "[3]": {"target": "Mothers against decapentaplegic homolog 3 (Homo sapiens, UniProt P84022)", "sequence (P84022 whole entry)": "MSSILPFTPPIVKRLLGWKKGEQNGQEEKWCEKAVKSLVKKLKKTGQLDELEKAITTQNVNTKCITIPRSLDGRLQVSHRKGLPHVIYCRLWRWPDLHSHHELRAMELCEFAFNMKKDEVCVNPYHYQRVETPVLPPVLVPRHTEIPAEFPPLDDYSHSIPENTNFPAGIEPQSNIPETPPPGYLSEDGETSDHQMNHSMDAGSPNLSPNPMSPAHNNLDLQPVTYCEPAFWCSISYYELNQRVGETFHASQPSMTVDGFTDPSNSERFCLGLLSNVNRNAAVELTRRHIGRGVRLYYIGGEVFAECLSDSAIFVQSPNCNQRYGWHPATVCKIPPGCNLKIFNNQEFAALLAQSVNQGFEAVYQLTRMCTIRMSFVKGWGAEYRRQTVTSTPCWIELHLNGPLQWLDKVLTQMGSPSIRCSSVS", "test": "Smad3 binding inhibitors, lysate ELISA, dose response, cell lysate, secondary confirmation, chemiluminescent ELISA, HEK293 lysate (AID 1058)", "assay_type": "functional"}, "[4]": {"test": "inhibitors of Bluetongue virus cytopathic effect, confirmation, arbovirus, BSR cells (AID 1250);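 note: protection from viral cytopathic effect measured as cell viability by ATP luminescence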", "assay_type": "functional"}, "HEK293": {"tested_on": "HEK293", "test": "Fluorescence-based counterscreen for potentiators or agonists of NPY-Y2: cell-based high-throughput dose response assay to identify inhibitors of cyclic nucleotide gated ion channel (CNGC) activity. In this assay, the parental HEK293 cell line transfected with a cyclic-nucleotide gated ion channel (CNGC)-based cAMP sensor is used to measure inhibition of isoproterenol-induced CNGC activity by test compound.", "assay_type": "functional", "conditions": "Homo sapiens"}, "[5]": {"target": "Neuropeptide Y receptor type 2 (Homo sapiens, UniProt P49146)", "sequence (P49146 whole entry)": "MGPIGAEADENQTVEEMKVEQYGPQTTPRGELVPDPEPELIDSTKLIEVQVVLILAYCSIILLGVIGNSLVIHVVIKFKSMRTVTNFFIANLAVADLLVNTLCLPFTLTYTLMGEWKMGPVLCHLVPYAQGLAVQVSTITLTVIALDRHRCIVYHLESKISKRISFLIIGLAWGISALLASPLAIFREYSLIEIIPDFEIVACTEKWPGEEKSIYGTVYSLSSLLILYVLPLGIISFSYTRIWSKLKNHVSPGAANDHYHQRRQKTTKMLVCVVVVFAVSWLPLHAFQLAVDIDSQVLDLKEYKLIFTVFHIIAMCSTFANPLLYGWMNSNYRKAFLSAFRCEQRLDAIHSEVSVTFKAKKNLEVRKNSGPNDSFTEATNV", "test": "Fluorescence-based cell-based high-throughput dose response assay for agonists of NPY-Y2. [Related pubchem assays: 1703 (Screening assay (CNGC inhibitors).), 1359 (Screening assay (NPY-Y2 potentiators or agonists).), 1304 (Screening assay (NPY-Y1 potentiators or agonists).), 1710 (Screening assay (NPY-Y2 agonists).), 1791 (Summary AID.)]", "assay_type": "functional"}, "[6]": {"test": "inhibitors of intracellular T. cruzi replication, confirmation, NIH3T3 host cells, beta-gal luminescence (AID 2044);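 note: luminescent beta-galactosidase reporter signal from transgenic T. cruzi replicating inside host cells; inhibitors lower the luminescence signal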", "assay_type": "functional, cell-based"}, "[7]": {"target": "Neuropeptide Y receptor type 1 (Homo sapiens, UniProt P25929)", "sequence (P25929 whole entry)": "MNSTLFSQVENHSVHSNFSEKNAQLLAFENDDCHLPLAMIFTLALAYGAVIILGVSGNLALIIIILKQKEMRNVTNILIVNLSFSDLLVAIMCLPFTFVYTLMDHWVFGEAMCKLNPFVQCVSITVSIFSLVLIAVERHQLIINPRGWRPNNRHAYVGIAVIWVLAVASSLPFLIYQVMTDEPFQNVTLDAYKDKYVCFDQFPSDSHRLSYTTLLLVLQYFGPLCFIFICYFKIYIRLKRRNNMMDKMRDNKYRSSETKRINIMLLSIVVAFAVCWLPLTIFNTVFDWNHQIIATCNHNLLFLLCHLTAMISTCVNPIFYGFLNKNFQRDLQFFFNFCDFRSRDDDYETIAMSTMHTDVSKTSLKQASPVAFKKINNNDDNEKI", "test": "Fluorescence-based counterscreen for agonists of NPY-Y2: cell-based high-throughput dose response assay for agonists of NPY-Y1.", "assay_type": "functional"}, "[8]": {"test": "cytotoxicity toward NIH3T3 fibroblasts, dose response, counter-screen, cell-based, ATP luminescence, mouse fibroblasts (AID 2010);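 note: cells exposed to compound for about 90 hours before reading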", "assay_type": "functional"}}, "note": "Activity calls are given as the source filed them."}
{"molecule": "COC(=O)c1c(NC(=O)COC(=O)[C@@H](NS(=O)(=O)c2ccc(C)cc2)C(C)C)sc2c1CCC2", "values": [{"measurement": "EC50", "setting": "Mucolipin-3", "value": "2.8 µM (active)"}, {"measurement": "EC50", "setting": "Ion channel NompC", "value": "> 29.9 µM (not active)"}]}
{"molecule": "CC(=O)Nc1cc2c(cc1C(C)=O)OCCO2", "values": [{"measurement": "IC50", "setting": "[1]", "value": "> 100 µM (not active)"}, {"measurement": "IC50", "setting": "[2]", "value": "> 100 µM (not active)"}]}
{"molecule": "COc1cc(OC)c(C(c2cc3c(cc2O)OCO3)N2CCOCC2)c(OC)c1", "note": "(stereo unspecified)", "values": [{"measurement": "IC50", "setting": "[3]", "value": "> 40 µM (not active)"}]}
{"molecule": "Cc1ccc2cc(C3CC(c4ccco4)=NN3S(=O)(=O)c3ccccc3)c(Cl)nc2c1", "note": "(stereo unspecified)", "values": [{"measurement": "IC50", "setting": "[4]", "value": "40.7 µM (active)"}]}
{"molecule": "Nc1c(-c2ccccc2)c(CSc2nc3ccccc3[nH]2)nn1-c1ccc(Cl)cc1", "values": [{"measurement": "EC50", "setting": "HEK293", "value": "> 35.4 µM (not active)"}, {"measurement": "EC50", "setting": "[5]", "value": "6.65 µM (active)"}, {"measurement": "EC50", "setting": "[6]", "value": "0.595 µM (active)"}, {"measurement": "EC50", "setting": "[7]", "value": "7.41 µM (active)"}, {"measurement": "EC50", "setting": "[8]", "value": "12.2 µM (active)"}]}
